According to US5661177A, “Zinc cysteate its preparation and uses in pharmacy and cosmetology” (Chimie et Biologie, priority 1988, dated 1997):
“Also recorded” adds a separate entry of the source. Where two headings read alike, the source gives them in different places.

Assays:
skin of Guinea Pig [1] = settings: TABLE I, cited from earlier work
[2] = system: lipidic synthesis of the sebaceous gland; experiment: In vitro antiseborrheic properties (14C-acetate incorporation, prepucial gland of the rat); type: cell-based
Protocol: In vitro antiseborrheic properties of CB 619
According to the experiment, the lipidic metabolic activity of the prepucial gland of the rat was evaluated. The lipidic synthesis of the sebaceous gland was evaluated by adding, as marked precursor, sodium ^14 C-acetate.
CB 619 was tested in comparison with carboxymethylcysteine (CMC) as a reference.

[3] = system: Pityrosporum orbiculare 1219; experiment: Antifungic test, cylinders method (inhibition diameter); type: cell-based; settings: 72 hours at 37° C.
Protocol: (§1) CB 619 was tested against Pityrosporum orbiculare 1219 and Pityrosporum ovale 1363, both from the Pasteur Institute, in the Dixon's culture medium, modified by Randjandiche according to the following composition: 30 ml of culture medium were cast in each Petri dish of 90 mm of diameter. The inoculum was a 2 ml suspension of Pityrosporum containing 10,000,000 germs, 72 hours old, per ml. After drying at 37° C., tests were carried out according to discs method or to cylinders method. According to cylinders method, cylinders of 4 mm of diameter were excavated in gelose with a stainless steel tool, and 75 microliters of the solution of the tested product were introduced into each cylinder. According to both methods, the inhibition areas were measured after a time of incubation of 72 hours at 37° C. According to cylinders method, Intrinsic Inhibition Power of CB 619 is, the inhibition diameter being given in mm: […]

Pityrosporum ovale 1363 [4] = experiment: as above; type: cell-based; settings: 72 hours at 37° C.
Protocol: as §1

eye = settings: rabbit, in vivo
Excerpt: The experiment was made according to the recommendations of the French "Arrete Ministeriel" of the 21 February 1984 which specifies the official method to determinate the eye irritation (E.I.).
The present method is utilized so as to evaluate the kind and degree of irritation brought about in the eyes by the use of a cosmetic or bodily hygiene product.
The method is based on observation of ocular reaction provoked by the sole instillation of the product.
Directly apply the product in the conjunctival pouch of one of the eyes in the following doses:
Observe the eye of the rabbits one hour, and then 1, 2, 3, 4 and 7 days following the instillation, utilizing the non-instilled eye as a control in order to evaluate possible irritation in the treated eye.
Add up the scores gathered for each of the six rabbits as of each time of observation. One thereby obtains the index of individual ocular irritation: I.O.I.
At each time of observation calculate the average individual ocular irriatation for the six rabbits. One thereby obtains the index of mean ocular irritation: O.I.
Note among the six ocular irritation scores the one with the highest value. One thereby obtains the index of maximum ocular irritation: M.O.I. The time it takes for the latter to appear will be specified in the minutes or report of the experiment.
In an initial approximation, the product is classified in one of the six categories in accordance with the maximum ocular irritation scores.
In a second evaluation, the persistence of lesions intervenes as a corrective of the preceding classification; the ocular irritation and individual ocular irritation scores at different times are taken into account:

[5] = system: wound made by loss of substance; experiment: Cicatrizing activity in the rat (area of wound); type: in vivo
Excerpt: Cicatrizing activity of CB 619 in the rat
The experiment was to calculate the area of the wound made by loss of substance.

skin = settings: rabbit, in vivo
Excerpt: Skin irritation index of CB 619 in the Rabbit
The experiment was made according to the French "Arrete Ministeriel" of the 21th of February 1982 which specifies the official method for the determination Of the skin primary irritation index (SPI).
The official method for the determination of the index of primary cutaneous irritation is described in detail in Annex 1.
The present method is utilized so as to determine the index of primary cutaneous irritation for a cosmetic or bodily hygiene product.
This method is based on the observation of cutaneous reactions provoked through the sole application of the principle.
4.1. Male albino rabbits of defined breed, weighing around 2.5 kg. So as to be perfectly acclimated, the animals must be kept in individual cages for one week prior to the experiment, and; must receive food of invariably balanced composition.
5.1.1. The day before application of the product, shear the back and flanks of the rabbits (4.1) with shears (4.3) so as to clear a surface of about 14 cm×14 cm; proceed with care in order to avoid all irritation. Verify skin condition so as to retain but six animals presenting healthy and clean-shaved skin.
5.1.2. […]
Primary cutaneous irritation must be evaluated around thirty minutes subsequent to removal of the dressing; a second evaluation is to take place 48 hours later, i.e. 72 hours after application of the product. […]

skin of Guinea Pig [6] = settings: in vivo
Excerpt: The experiment was made according to the technical sheet No. 44 (J. Pharmacol. Paris, 1978, 9, 1, 103-6) which conforms to the Magnusson and Kligmann technique.
This sensibilization test according to Magnusson and Kligmann is described in detail in annex 3.
This test is designed to create a delayed allergic reaction in the guinea pig.
Female albino Hartley-breed guinea pigs weighing between 300 and 500 grams.
For the intradermic tract, the product is placed in solution or suspension in bidistilled water, or a suitable solvent. Intradermic injections of 0.1 ml are given in the preliminarily sheared and shaved dorsal region of four albino guinea pigs in increased concentrations. […] The reading of possible reactions takes place after 24 hours. […] If this is not the case, the scale utilized will depend on the maximum non-irritating concentration (MNIC), whose determination may require a second series of tests with concentrations to be determined in accordance with the results of the first.
The same procedures are used for the external cutaneous tract, with the product being placed, in certain cases, in suspension or solution in vaseline. […] Readings are taken one hour following removal of the pads. […]
Readings of local reactions take place 24 and 48 hours following removal of the pad. […]

pH of aqueous solution = type: physicochemical; settings: 6% solution in water
Mouse = experiment: Acute toxicity in the Mouse (LD 50); type: in vivo; settings: for LD 50: male and female mice, 14 days, Miller and Tainter method
Protocol: Acute toxicity of CB 619 in the Mouse
The lethal dosis 50% (LD 50) of CB 619 were evaluated when dissolved in bidistilled water and administered by 0.2 to 0.3 ml/kg volumes, monitoring the effect during 14 days.

[7] = system: Pityrosporum orbiculare 1219; experiment: Antifungic test, discs method (inhibition diameter); type: cell-based; settings: 72 hours at 37° C.
Protocol: (§2) CB 619 was tested against Pityrosporum orbiculare 1219 and Pityrosporum ovale 1363, both from the Pasteur Institute, in the Dixon's culture medium, modified by Randjandiche according to the following composition:
(§3) 30 ml of culture medium were cast in each Petri dish of 90 mm of diameter.
(§4) The inoculum was a 2 ml suspension of Pityrosporum containing 10,000,000 germs, 72 hours old, per ml.
(§5) After drying at 37° C., tests were carried out according to discs method or to cylinders method.
(§6) According to the discs method, discs of 6 mm of Antibiotica-Testblattchen Schleider & Schull, reference 2668/2, are soaked in test solution, then set down onto the seeded medium.
(§7) According to both methods, the inhibition areas were measured after a time of incubation of 72 hours at 37° C.
(§8) According to the discs method, Intrinsic Inhibition Power of CB 619 is, the inhibition diameter being given in mm: […]

Pityrosporum ovale 1363 [8] = experiment: as above; type: cell-based; settings: 72 hours at 37° C.
Protocol: as §2, §3, §4, §5, §6, §7, §8

cicatrization of wounds = settings: normal animal, without zinc deficiency; Favier et al. 1980; cited from earlier work

OCC(O)CS (stereo not shown) [Thioglycerol]
Class. (degree of allergenicity) (skin of Guinea Pig [1]; reading 24): III (29-64)
Number of animals with Note 0 (skin of Guinea Pig [1]; reading 24): 7
Number of animals with Note 1 (skin of Guinea Pig [1]; reading 24): 9
Number of animals with Note 2 (skin of Guinea Pig [1]; reading 24): 3
Number of animals with Note 3 (skin of Guinea Pig [1]; reading 24): 0
Percentage of animals having presented a reaction (skin of Guinea Pig [1]; reading 24): 63%
Class. (degree of allergenicity) (skin of Guinea Pig [1]; reading 48): III (29-64)
Number of animals with Note 0 (skin of Guinea Pig [1]; reading 48): 11
Number of animals with Note 1 (skin of Guinea Pig [1]; reading 48): 8
Number of animals with Note 2 (skin of Guinea Pig [1]; reading 48): 0
Number of animals with Note 3 (skin of Guinea Pig [1]; reading 48): 0
Percentage of animals having presented a reaction (skin of Guinea Pig [1]; reading 48): 45%

CCOC(=O)c1ccc(N)cc1 [Benzocaine]
Class. (degree of allergenicity) (skin of Guinea Pig [1]; reading 24): II (9-28)
Number of animals with Note 0 (skin of Guinea Pig [1]; reading 24): 17
Number of animals with Note 1 (skin of Guinea Pig [1]; reading 24): 3
Number of animals with Note 2 (skin of Guinea Pig [1]; reading 24): 0
Number of animals with Note 3 (skin of Guinea Pig [1]; reading 24): 0
Percentage of animals having presented a reaction (skin of Guinea Pig [1]; reading 24): 15%
Class. (degree of allergenicity) (skin of Guinea Pig [1]; reading 48): II (9-28)
Number of animals with Note 0 (skin of Guinea Pig [1]; reading 48): 17
Number of animals with Note 1 (skin of Guinea Pig [1]; reading 48): 3
Number of animals with Note 2 (skin of Guinea Pig [1]; reading 48): 0
Number of animals with Note 3 (skin of Guinea Pig [1]; reading 48): 0
Percentage of animals having presented a reaction (skin of Guinea Pig [1]; reading 48): 15%

Nc1ccc(N)cc1 [Diamine paraphenylene]
Class. (degree of allergenicity) (skin of Guinea Pig [1]; reading 24): V (81-100)
Number of animals with Note 0 (skin of Guinea Pig [1]; reading 24): 3
Number of animals with Note 1 (skin of Guinea Pig [1]; reading 24): 13
Number of animals with Note 2 (skin of Guinea Pig [1]; reading 24): 4
Number of animals with Note 3 (skin of Guinea Pig [1]; reading 24): 0
Percentage of animals having presented a reaction (skin of Guinea Pig [1]; reading 24): 85%
Class. (degree of allergenicity) (skin of Guinea Pig [1]; reading 48): IV (65-80)
Number of animals with Note 0 (skin of Guinea Pig [1]; reading 48): 4
Number of animals with Note 1 (skin of Guinea Pig [1]; reading 48): 12
Number of animals with Note 2 (skin of Guinea Pig [1]; reading 48): 4
Number of animals with Note 3 (skin of Guinea Pig [1]; reading 48): 0
Percentage of animals having presented a reaction (skin of Guinea Pig [1]; reading 48): 80%

carboxymethylcysteine [CMC]
Inhibition of the lipidic synthesis ([2]; 10^-3 M): 24.5%
Inhibition of the lipidic synthesis ([2]; 10^-4 M): 5.9%

N[C@@H](CS(=O)(=O)O)C(=O)[O-].N[C@@H](CS(=O)(=O)O)C(=O)[O-].O.O.[Zn+2] [CB 619, dihydrate of the zinc salt of L-cysteic acid]
Solubility in water: ~6 weight-percent by volume
Intrinsic Inhibition Power, inhibition diameter ([3]; concentration of 2%): 10 mm
Intrinsic Inhibition Power, inhibition diameter ([3]; saturated solution): 11 mm
Intrinsic Inhibition Power, inhibition diameter (Pityrosporum ovale 1363 [4]; concentration of 2%): 10 mm
Intrinsic Inhibition Power, inhibition diameter (Pityrosporum ovale 1363 [4]; saturated solution): 11 mm
Cell multiplication (human fibroblast cells; 1 and 5 microgram/ml): increases the 5 cell multiplication in accordance with the concentration
Significance of increase in cell multiplication (days) (human fibroblast cells; 1 microgram/ml): significant on the sixth day
Significance of increase in cell multiplication (days) (human fibroblast cells; 5 microgram/ml): on the fourth, sixth and eighth days
Inhibition of the lipidic synthesis ([2]; 10^-3 M): 41.8%
Antiseborrheic activity compared with carboxymethylcysteine ([2]; 10^-3 M, CB 619 versus CMC): the more active
Inhibition of the lipidic synthesis ([2]; 10^-4 M): 33.7%
Eye irritation (E.I.) (eye): under 2
Eye irritation classification (eye): very weakly irritant
Maximum eye irritation (eye): 5.83
Cicatrization ([5]; 3% in a 2% carbopol gel): enhances cicatrization
Cicatrization ([5]; 10% in a 2% carbopol gel): no more active
Skin irritation classification (skin): non-irritant
Skin primary irritation index (SPI) (skin): 0.1666
Allergenicity (sensibilization) (skin of Guinea Pig [6]): no allergenic properties
pH of a 6% solution (pH of aqueous solution): about 6.30
LD 50 (Mouse; intraperitoneally): 0.10 ± 0.013 g/kg
Signs at the toxic dosis (Mouse; mouse, toxic dosis): animals become isolated in their cage; also recorded: Their hair stands up and they move with difficulty; also recorded: No diarrhea was observed
LD 50 (Mouse; orally): 1.65 ± 0.06 g/kg
Intrinsic Inhibition Power, inhibition diameter ([7]; 1 mg): 6 mm
Intrinsic Inhibition Power, inhibition diameter ([7]; 2 mg): 7 mm
Intrinsic Inhibition Power, inhibition diameter ([7]; 3 mg): 9 mm
Intrinsic Inhibition Power, inhibition diameter ([7]; 4 mg): 11 mm
Intrinsic Inhibition Power, inhibition diameter ([7]; 5 mg): 13 mm
Intrinsic Inhibition Power, inhibition diameter (Pityrosporum ovale 1363 [8]; 1 mg): 6 mm
Intrinsic Inhibition Power, inhibition diameter (Pityrosporum ovale 1363 [8]; 2 mg): 7 mm
Intrinsic Inhibition Power, inhibition diameter (Pityrosporum ovale 1363 [8]; 3 mg): 9 mm
Intrinsic Inhibition Power, inhibition diameter (Pityrosporum ovale 1363 [8]; 4 mg): 11 mm
Intrinsic Inhibition Power, inhibition diameter (Pityrosporum ovale 1363 [8]; 5 mg): 13 mm

CCN(CC)CCNC(=O)c1ccc(N)cc1 [Procainamide]
Number of animals with Note 0 (skin of Guinea Pig [1]; reading 24): 6
Number of animals with Note 1 (skin of Guinea Pig [1]; reading 24): 5
Number of animals with Note 2 (skin of Guinea Pig [1]; reading 24): 9
Number of animals with Note 3 (skin of Guinea Pig [1]; reading 24): 0
Percentage of animals having presented a reaction (skin of Guinea Pig [1]; reading 24): 70%
Number of animals with Note 0 (skin of Guinea Pig [1]; reading 48): 6
Number of animals with Note 1 (skin of Guinea Pig [1]; reading 48): 5
Number of animals with Note 2 (skin of Guinea Pig [1]; reading 48): 9
Number of animals with Note 3 (skin of Guinea Pig [1]; reading 48): 0
Percentage of animals having presented a reaction (skin of Guinea Pig [1]; reading 48): 70%

[Zn] [zinc]
Cicatrization (cicatrization of wounds): does not accelerate the cicatrization
